From PubChem BioAssay (NCI) come the findings set out here.

The structures appear in SMILES notation.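 Each compound was tested at five concentrations against cells in 96-well plates for 48 hours. Abbreviation: GI50, concentration required for 50% inhibition of growth. At the TGI there is no net growth.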

The first experiment relates to SK-MEL-2 melanoma. As to the kind of experiment: inhibition of tumour cell growth, NCI panel, 48 h.
Consider `COc1cc2c(c(OC)c1OC)-c1ccc(NNC(N)=S)c(=O)cc1[C@@H](NC(C)=O)CC2`, for which the TGI is above 100 µM.

For a further experiment, the system named is RPMI-8226 leukemia. As to the kind of experiment: inhibition of tumour cell growth, NCI panel, 48 h.
As to `CN(C)c1ccc(/C=C\C2=[N+](C)c3ccccc3C2(C)C)cc1`, the GI50 was 0.176 µM and the TGI was above 53.5 µM.
The corresponding values for `Cn1cc(C2=C(c3c4n(c5ccccc35)CCCCC4)C(=O)NC2=O)c2ccccc21` are 6.88 µM and above 19.2 µM.
For `Cc1ccnc2c1ccc1c(C)ccnc12` the same measures were 0.468 µM and 14.3 µM.
For `NS(=O)(=O)OC[C@@H]1C[C@@H](n2ccc3c(NC4CCc5ccccc54)ncnc32)C[C@@H]1O` (stereo partly specified) the same measures were 5.41 µM and 27.6 µM.
`O=C1/C(=C/c2ccc(O)c(O)c2)CCC/C1=C\c1ccc(O)c(O)c1`: the TGI was above 44.7 µM.
In the case of `Nc1ccccc1C#C/C=C\C#Cc1ccccc1OC(F)(F)F`, the GI50 is 3.55 µM and the TGI amounted to 18 µM.
As to `CN1CCCCC1CCN1c2ccccc2Sc2ccc(Cl)cc21` (stereo unspecified), the GI50 is 3.17 µM and the TGI came to 9.29 µM.
For `FC(F)(F)c1cccc(Nc2nc(-c3ccccc3)nc3ncccc23)c1` the same measures were 3.09 µM and 9.16 µM.
The corresponding values for `CC(=O)OC1OC([C@@H]2c3cccc(O)c3C(=O)c3c(O)cc(C)cc32)C(O)C(O)C1O` (stereo partly specified) are below 0.0153 µM and below 0.0292 µM.
For `Cc1ccc(CN2CCC(C(=O)Nc3ccc(-c4cc5ccccc5[nH]4)cc3)CC2)o1` the same measures were above 100 µM and above 100 µM.
On to `C=CCOc1ccc2c(C)cc(=O)oc2c1C`, for which the TGI is above 100 µM.
Consider `Nc1c(C(=O)c2cccc(CCS(N)(=O)=O)c2)cnn1-c1ccc(F)cc1`, for which the GI50 is above 25 µM and the TGI was above 25 µM.
`Cc1ccc2c(C)c3c(ccc4ccccc43)c[n+]2c1`: the GI50 was 4.92 µM and the TGI was determined as 41.2 µM.
The corresponding values for `COC(=O)/C=C1\S/C(=N\NC(=O)c2cc3ccc2/C=C\c2ccc(cc2)/C=C\3)N(c2ccccc2)C1=O` are 2.15 µM and 5.69 µM.
`Cc1ccsc1C(=S)Nc1ccc(Cl)c(/C=N/OC(C)(C)C)c1` came in with a TGI above 100 µM.
As to `COc1cc2c(c(OC)c1OC)-c1ccc(NNC(N)=S)c(=O)cc1[C@@H](NC(C)=O)CC2`, the GI50 was 0.39 µM and the TGI was above 29.4 µM.

The test system of the next experiment is KM12 colon. As to the kind of experiment: inhibition of tumour cell growth, NCI panel, 48 h.
Regarding `CN(C)c1ccc(/C=C\C2=[N+](C)c3ccccc3C2(C)C)cc1`, the GI50 was 0.369 µM and the TGI turned out to be 4.46 µM.
The corresponding values for `Cn1cc(C2=C(c3c4n(c5ccccc35)CCCCC4)C(=O)NC2=O)c2ccccc21` are 2.97 µM and above 25 µM.
As for `Cc1ccnc2c1ccc1c(C)ccnc12`, the GI50 is 0.504 µM and the TGI stood at 12 µM.
Regarding `NS(=O)(=O)OC[C@@H]1C[C@@H](n2ccc3c(NC4CCc5ccccc54)ncnc32)C[C@@H]1O` (stereo partly specified), the GI50 was 1.13 µM and the TGI was 49.1 µM.
In turn, `O=C1/C(=C/c2ccc(O)c(O)c2)CCC/C1=C\c1ccc(O)c(O)c1` yielded a TGI of 13.8 µM.
Consider `Nc1ccccc1C#C/C=C\C#Cc1ccccc1OC(F)(F)F`, for which the GI50 is 4.78 µM and the TGI amounted to 27.3 µM.
Take `CN1CCCCC1CCN1c2ccccc2Sc2ccc(Cl)cc21` (stereo unspecified): the GI50 is 2.77 µM and the TGI is 7.38 µM.
The corresponding values for `FC(F)(F)c1cccc(Nc2nc(-c3ccccc3)nc3ncccc23)c1` are 4.3 µM and above 100 µM.
Take `CC(=O)OC1OC([C@@H]2c3cccc(O)c3C(=O)c3c(O)cc(C)cc32)C(O)C(O)C1O` (stereo partly specified): the GI50 was below 0.01 µM.
Turning to `Cc1ccc(CN2CCC(C(=O)Nc3ccc(-c4cc5ccccc5[nH]4)cc3)CC2)o1`, the GI50 was 83.9 µM and the TGI was above 100 µM.
As to `C=CCOc1ccc2c(C)cc(=O)oc2c1C`, the TGI was above 100 µM.
`Nc1c(C(=O)c2cccc(CCS(N)(=O)=O)c2)cnn1-c1ccc(F)cc1`: the GI50 is above 25 µM and the TGI is above 25 µM.
Turning to `Cc1ccc2c(C)c3c(ccc4ccccc43)c[n+]2c1`, the GI50 is 1.56 µM and the TGI is 14.8 µM.
For the compound `COC(=O)/C=C1\S/C(=N\NC(=O)c2cc3ccc2/C=C\c2ccc(cc2)/C=C\3)N(c2ccccc2)C1=O`, the GI50 was 2.03 µM and the TGI is 4.15 µM.
For the compound `Cc1ccsc1C(=S)Nc1ccc(Cl)c(/C=N/OC(C)(C)C)c1`, the TGI was above 100 µM.
Regarding `COc1cc2c(c(OC)c1OC)-c1ccc(NNC(N)=S)c(=O)cc1[C@@H](NC(C)=O)CC2`, the GI50 was 0.301 µM and the TGI was found to be 1.92 µM.

The next experiment concerns HCC-2998 colon. In words: inhibition of tumour cell growth, NCI panel, 48 h.
With `CN(C)c1ccc(/C=C\C2=[N+](C)c3ccccc3C2(C)C)cc1`, the GI50 was 1.22 µM and the TGI amounted to 12.9 µM.
The corresponding values for `Cn1cc(C2=C(c3c4n(c5ccccc35)CCCCC4)C(=O)NC2=O)c2ccccc21` are 12.4 µM and above 25 µM.
Regarding `Cc1ccnc2c1ccc1c(C)ccnc12`, the GI50 was 0.381 µM and the TGI stood at 15.1 µM.
The corresponding values for `NS(=O)(=O)OC[C@@H]1C[C@@H](n2ccc3c(NC4CCc5ccccc54)ncnc32)C[C@@H]1O` (stereo partly specified) are 2.97 µM and 18.2 µM.
On to `O=C1/C(=C/c2ccc(O)c(O)c2)CCC/C1=C\c1ccc(O)c(O)c1`, for which the TGI was 11.5 µM.
As to `Nc1ccccc1C#C/C=C\C#Cc1ccccc1OC(F)(F)F`, the GI50 is 2.93 µM and the TGI is 14.7 µM.
Regarding `CN1CCCCC1CCN1c2ccccc2Sc2ccc(Cl)cc21` (stereo unspecified), the GI50 was 2.5 µM and the TGI was found to be 5.85 µM.
`FC(F)(F)c1cccc(Nc2nc(-c3ccccc3)nc3ncccc23)c1`: the GI50 was 4.91 µM and the TGI worked out at 30.2 µM.
Consider `CC(=O)OC1OC([C@@H]2c3cccc(O)c3C(=O)c3c(O)cc(C)cc32)C(O)C(O)C1O` (stereo partly specified), for which the GI50 was below 0.01 µM.
On to `Cc1ccc(CN2CCC(C(=O)Nc3ccc(-c4cc5ccccc5[nH]4)cc3)CC2)o1`, for which the GI50 is above 100 µM and the TGI is above 100 µM.
With `C=CCOc1ccc2c(C)cc(=O)oc2c1C`, the TGI is above 100 µM.
On to `Nc1c(C(=O)c2cccc(CCS(N)(=O)=O)c2)cnn1-c1ccc(F)cc1`, for which the GI50 was above 25 µM and the TGI is above 25 µM.
Turning to `Cc1ccc2c(C)c3c(ccc4ccccc43)c[n+]2c1`, the GI50 was 8.06 µM and the TGI amounted to 25.5 µM.
For `COC(=O)/C=C1\S/C(=N\NC(=O)c2cc3ccc2/C=C\c2ccc(cc2)/C=C\3)N(c2ccccc2)C1=O` the same measures were 1.78 µM and 3.45 µM.
The compound `Cc1ccsc1C(=S)Nc1ccc(Cl)c(/C=N/OC(C)(C)C)c1` showed a TGI of 48.5 µM.
As for `COc1cc2c(c(OC)c1OC)-c1ccc(NNC(N)=S)c(=O)cc1[C@@H](NC(C)=O)CC2`, the GI50 was 0.263 µM.

A further experiment relates to HS 578T breast. As to the kind of experiment: inhibition of tumour cell growth, NCI panel, 48 h.
As to `CN(C)c1ccc(/C=C\C2=[N+](C)c3ccccc3C2(C)C)cc1`, the GI50 was 0.305 µM and the TGI came to 8.68 µM.
Turning to `Cn1cc(C2=C(c3c4n(c5ccccc35)CCCCC4)C(=O)NC2=O)c2ccccc21`, the GI50 was 1.7 µM and the TGI amounted to 19.8 µM.
For `Cc1ccnc2c1ccc1c(C)ccnc12`, the GI50 was 3.95 µM and the TGI was above 100 µM.
In the case of `NS(=O)(=O)OC[C@@H]1C[C@@H](n2ccc3c(NC4CCc5ccccc54)ncnc32)C[C@@H]1O` (stereo partly specified), the GI50 was 16.8 µM and the TGI worked out at 61.3 µM.
In turn, `O=C1/C(=C/c2ccc(O)c(O)c2)CCC/C1=C\c1ccc(O)c(O)c1` gave a TGI above 39.9 µM.
For the compound `Nc1ccccc1C#C/C=C\C#Cc1ccccc1OC(F)(F)F`, the GI50 was 4.08 µM and the TGI amounted to 22 µM.
For `CN1CCCCC1CCN1c2ccccc2Sc2ccc(Cl)cc21` (stereo unspecified) the same measures were 2.25 µM and 8.79 µM.
For the compound `FC(F)(F)c1cccc(Nc2nc(-c3ccccc3)nc3ncccc23)c1`, the GI50 is 3.49 µM and the TGI turned out to be 18.1 µM.
For `CC(=O)OC1OC([C@@H]2c3cccc(O)c3C(=O)c3c(O)cc(C)cc32)C(O)C(O)C1O` (stereo partly specified), the GI50 is below 0.0103 µM.
As to `Cc1ccc(CN2CCC(C(=O)Nc3ccc(-c4cc5ccccc5[nH]4)cc3)CC2)o1`, the GI50 is 26.3 µM and the TGI was above 100 µM.
As for `C=CCOc1ccc2c(C)cc(=O)oc2c1C`, the TGI was determined as 77.1 µM.
On to `Nc1c(C(=O)c2cccc(CCS(N)(=O)=O)c2)cnn1-c1ccc(F)cc1`, for which the GI50 was above 25 µM and the TGI is above 25 µM.
For the compound `Cc1ccc2c(C)c3c(ccc4ccccc43)c[n+]2c1`, the GI50 was 4.37 µM and the TGI amounted to 22.3 µM.
For `COC(=O)/C=C1\S/C(=N\NC(=O)c2cc3ccc2/C=C\c2ccc(cc2)/C=C\3)N(c2ccccc2)C1=O`, the GI50 is 3.49 µM and the TGI is above 100 µM.
On to `Cc1ccsc1C(=S)Nc1ccc(Cl)c(/C=N/OC(C)(C)C)c1`, for which the TGI was above 100 µM.
Compound `COc1cc2c(c(OC)c1OC)-c1ccc(NNC(N)=S)c(=O)cc1[C@@H](NC(C)=O)CC2` had a TGI above 100 µM.

For another experiment, the system named is RXF 393 renal. As to the kind of experiment: inhibition of tumour cell growth, NCI panel, 48 h.
With `CN(C)c1ccc(/C=C\C2=[N+](C)c3ccccc3C2(C)C)cc1`, the GI50 is 1.45 µM and the TGI came out at 27.7 µM.
For `Cn1cc(C2=C(c3c4n(c5ccccc35)CCCCC4)C(=O)NC2=O)c2ccccc21` the same measures were 1.42 µM and 7.23 µM.
The corresponding values for `Cc1ccnc2c1ccc1c(C)ccnc12` are 0.729 µM and 15.1 µM.
For the compound `NS(=O)(=O)OC[C@@H]1C[C@@H](n2ccc3c(NC4CCc5ccccc54)ncnc32)C[C@@H]1O` (stereo partly specified), the GI50 was 11.2 µM and the TGI was found to be 37.1 µM.
`O=C1/C(=C/c2ccc(O)c(O)c2)CCC/C1=C\c1ccc(O)c(O)c1` yielded a TGI of 9.5 µM.
With `Nc1ccccc1C#C/C=C\C#Cc1ccccc1OC(F)(F)F`, the GI50 was 4.39 µM and the TGI was 23.9 µM.
The corresponding values for `CN1CCCCC1CCN1c2ccccc2Sc2ccc(Cl)cc21` (stereo unspecified) are 3.18 µM and 8.47 µM.
Turning to `FC(F)(F)c1cccc(Nc2nc(-c3ccccc3)nc3ncccc23)c1`, the GI50 is 2.21 µM and the TGI is 5.66 µM.
The corresponding values for `CC(=O)OC1OC([C@@H]2c3cccc(O)c3C(=O)c3c(O)cc(C)cc32)C(O)C(O)C1O` (stereo partly specified) are 0.35 µM and 1.58 µM.
For `Cc1ccc(CN2CCC(C(=O)Nc3ccc(-c4cc5ccccc5[nH]4)cc3)CC2)o1`, the GI50 is above 100 µM and the TGI was above 100 µM.
The compound `C=CCOc1ccc2c(C)cc(=O)oc2c1C` yielded a TGI of 63.9 µM.
On to `Nc1c(C(=O)c2cccc(CCS(N)(=O)=O)c2)cnn1-c1ccc(F)cc1`, for which the GI50 was above 25 µM and the TGI is above 25 µM.
Regarding `Cc1ccc2c(C)c3c(ccc4ccccc43)c[n+]2c1`, the GI50 was 41.5 µM and the TGI is above 100 µM.
The corresponding values for `COC(=O)/C=C1\S/C(=N\NC(=O)c2cc3ccc2/C=C\c2ccc(cc2)/C=C\3)N(c2ccccc2)C1=O` are 1.52 µM and 3.86 µM.
The compound `Cc1ccsc1C(=S)Nc1ccc(Cl)c(/C=N/OC(C)(C)C)c1` yielded a TGI of 36.6 µM.
Consider `COc1cc2c(c(OC)c1OC)-c1ccc(NNC(N)=S)c(=O)cc1[C@@H](NC(C)=O)CC2`, for which the GI50 is 0.298 µM and the TGI is 0.747 µM.
